± gives the standard deviation of the averaged measurements.
What follows are test systems tested with O=C(O)C1(C(=O)O)CCC1.[NH2-].[NH2-].[Pt+2] [CARBOPLATIN] (assay: surviving fraction relative to DMSO-only wells; higher = less growth inhibition). Settings: 50 nM; exposure time: 5 days.
Outline: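 Five days of continuous inhibitor exposure, at 0.5, 1, 5, 10, 50, 100, 500 and 1000 nM, followed a 24-hour period after log-phase tumour cell lines were seeded at 250–500 cells per well in 384-well plates. Surviving fraction was derived from CellTiter-Glo luminescence relative to the median of DMSO-only wells. Plates were read after 10 minutes at room temperature, and lines screened three times were kept only if replicate Pearson r >0.7 and median Z' >0.3.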

Test System | surviving fraction
MFM223 BREAST | 1.16 ± 0.021
MG63 BONE | 1.08 ± 0.034
MHM BONE | 1.09 ± 0.014
NCIH441 LUNG | 1.07 ± 0.2
NOS1 BONE | 1.22 ± 0.14
NY BONE | 1.09 ± 0.019
OS25HAL BONE | 1.18 ± 0.025
OSHN BONE | 1.141 ± 0.0049
RDES SOFT TISSUE | 1.09 ± 0.15
SCC47 HEADNECK | 1.26 ± 0.054
SCC90 HEADNECK | 1.2 ± 0.07
SG27 HEADNECK | 1.18 ± 0.12
SG28 HEADNECK | 1.024 ± 0.0035
SG31 HEADNECK | 1.16 ± 0.1
SG32 HEADNECK | 1.27 ± 0.12
SG43 HEADNECK | 0.826 ± 0.071
SIHA CERVIX | 1.16 ± 0.1
SJSA1 BONE | 0.869 ± 0.07
SKBR3 BREAST | 1.08 ± 0.049
SNU475 LIVER | 1.02 ± 0.075
SUM44 BREAST | 1.28 ± 0.27
SUM149.B1*.S BREAST | 1.17 ± 0.024
SUM159 BREAST | 1.09 ± 0.022
SYO1 SYNOVIAL | 0.998 ± 0.019
T47D BREAST | 1.05 ± 0.013
U2OS BONE | 1.1 ± 0.049
VCAP PROSTATE | 1.05 ± 0.13
VP229 BREAST | 1.17 ± 0.21
YAMATO SYNOVIAL | 1.34 ± 0.029
ZR751 BREAST | 1.2 ± 0.099

Same assay, conditions: 100 nM; exposure time: 5 days

Test System | surviving fraction
MFM223 BREAST | 1.12 ± 0.094
MG63 BONE | 1.076 ± 0.004
MHM BONE | 1.07 ± 0.028
NCIH441 LUNG | 0.961 ± 0.091
NOS1 BONE | 1.23 ± 0.1
NY BONE | 1.099 ± 0.0055
OS25HAL BONE | 1.17 ± 0.053
OSHN BONE | 1.13 ± 0.015
RDES SOFT TISSUE | 1.23 ± 0.13
SCC47 HEADNECK | 1.21 ± 0.16
SCC90 HEADNECK | 1.15 ± 0.012
SG27 HEADNECK | 1.02 ± 0.13
SG28 HEADNECK | 1 ± 0.084
SG31 HEADNECK | 1.06 ± 0.19
SG32 HEADNECK | 1.38 ± 0.35
SG43 HEADNECK | 0.996 ± 0.19
SIHA CERVIX | 1.21 ± 0.044
SJSA1 BONE | 1.376 ± 0.0032
SKBR3 BREAST | 1.04 ± 0.073
SNU475 LIVER | 1.05 ± 0.043
SUM44 BREAST | 1.11 ± 0.1
SUM149.B1*.S BREAST | 1.2 ± 0.029
SUM159 BREAST | 1.09 ± 0.015
SYO1 SYNOVIAL | 1.01 ± 0.035
T47D BREAST | 1.05 ± 0.059
U2OS BONE | 1.077 ± 0.0098
VCAP PROSTATE | 1.21 ± 0.086
VP229 BREAST | 1.05 ± 0.025
YAMATO SYNOVIAL | 1.29 ± 0.11
ZR751 BREAST | 1.18 ± 0.25

Same assay, conditions: 500 nM; exposure time: 5 days

Test System | surviving fraction
MFM223 BREAST | 1.11 ± 0.077
MG63 BONE | 1.05 ± 0.055
MHM BONE | 1.02 ± 0.04
NCIH441 LUNG | 1.02 ± 0.16
NOS1 BONE | 1.11 ± 0.051
NY BONE | 1.05 ± 0.012
OS25HAL BONE | 1.06 ± 0.04
OSHN BONE | 1.15 ± 0.014
RDES SOFT TISSUE | 1.08 ± 0.099
SCC47 HEADNECK | 1.14 ± 0.019
SCC90 HEADNECK | 1.14 ± 0.098
SG27 HEADNECK | 1.14 ± 0.27
SG28 HEADNECK | 1.11 ± 0.034
SG31 HEADNECK | 1.17 ± 0.083
SG32 HEADNECK | 1.16 ± 0.2
SG43 HEADNECK | 0.994 ± 0.16
SIHA CERVIX | 1.08 ± 0.048
SJSA1 BONE | 1.54 ± 0.088
SKBR3 BREAST | 1.07 ± 0.073
SNU475 LIVER | 1.01 ± 0.04
SUM44 BREAST | 1.2 ± 0.25
SUM149.B1*.S BREAST | 1.19 ± 0.052
SUM159 BREAST | 1.11 ± 0.022
SYO1 SYNOVIAL | 0.99 ± 0.065
T47D BREAST | 1.05 ± 0.028
U2OS BONE | 1.06 ± 0.016
VCAP PROSTATE | 1.05 ± 0.07
VP229 BREAST | 1.19 ± 0.096
YAMATO SYNOVIAL | 1.248 ± 0.0092
ZR751 BREAST | 1.26 ± 0.15

Same assay, conditions: 1000 nM; exposure time: 5 days

Test System | surviving fraction
MFM223 BREAST | 1.06 ± 0.11
MG63 BONE | 1.01 ± 0.032
MHM BONE | 1.035 ± 0.0078
NCIH441 LUNG | 1.04 ± 0.21
NOS1 BONE | 0.955 ± 0.073
NY BONE | 1.03 ± 0.016
OS25HAL BONE | 1.14 ± 0.029
OSHN BONE | 1.113 ± 0.011
RDES SOFT TISSUE | 1.15 ± 0.14
SCC47 HEADNECK | 1.08 ± 0.045
SCC90 HEADNECK | 1.16 ± 0.12
SG27 HEADNECK | 1.03 ± 0.11
SG28 HEADNECK | 1.18 ± 0.19
SG31 HEADNECK | 1.21 ± 0.14
SG32 HEADNECK | 1.04 ± 0.17
SG43 HEADNECK | 1.07 ± 0.14
SIHA CERVIX | 1.14 ± 0.02
SJSA1 BONE | 1.16 ± 0.17
SKBR3 BREAST | 1.03 ± 0.14
SNU475 LIVER | 1.04 ± 0.036
SUM44 BREAST | 1.07 ± 0.079
SUM149.B1*.S BREAST | 1.13 ± 0.025
SUM159 BREAST | 1.092 ± 0.01
SYO1 SYNOVIAL | 0.972 ± 0.028
T47D BREAST | 1.03 ± 0.042
U2OS BONE | 1.05 ± 0.032
VCAP PROSTATE | 1.04 ± 0.18
VP229 BREAST | 0.956 ± 0.14
YAMATO SYNOVIAL | 1.29 ± 0.051
ZR751 BREAST | 1.24 ± 0.22

Source: the supplement of paper PMC6045584
